Results published in ChEMBL document CHEMBL3044549, “Colchicine and its various physicochemical and biological aspects” (Med Chem Res, 2013).

Columns and labels:
[1] = Elimination half life in healthy Homo sapiens (human); format: ADME, organism-based; details: in vivo, read-out: beta t1/2 (converted)
[2] = Renal clearance in healthy Homo sapiens (human); format: ADME, organism-based, Kidney; details: in vivo
[3] = Volume of distribution in Homo sapiens (human); format: ADME, organism-based; details: in vivo
Homo sapiens = species: Homo sapiens; test: Distribution half life in Homo sapiens (human); format: ADME, organism-based; details: in vivo
[4] = Oral bioavailability in older Homo sapiens (human) individuals at 1 mg; format: ADME, organism-based; details: in vivo
[5] = Oral bioavailability in healthy Homo sapiens (human) at 1 mg; format: ADME, organism-based; details: in vivo

COc1cc2c(c(OC)c1OC)-c1ccc(OC)c(=O)cc1[C@@H](NC(C)=O)CC2 [COLCHICINE]
half-life [1]: 14 h
CL renal [2]: 66.7 mL/min
Vd [3]: 7 L/kg
alphat1/2 (Homo sapiens): 1 h
bioavailability [4]: 45%
bioavailability [5]: 45%
